Here are results for 17 molecules from ChEMBL document CHEMBL1152524, “Preparation of C-23 esterified silybin derivatives and evaluation of their lipid peroxidation inhibitory and DNA protective properties” (Bioorg Med Chem, 2009).

Assay [1] is described as follows: Antioxidant activity assessed as protection against H2O2-induced pcDNA3.1(+) scission at 100 ug/mL after 30 mins by […] staining-based gel electrophoresis. It counts as functional.
Assay [2] concerns Radical scavenging activity. The experiment in a line: Antioxidant activity assessed as DPPH radical scavenging activity at 100 ug/mL after 30 mins. The class given is functional.
The next assay has as its system Liver. Briefly: Inhibition of FeSO4-induced lipid peroxidation in Sprague-Dawley rat liver homogenate assessed as decrease in malondialdehyde level after 1 hr by TBA assay. It counts as functional, tissue-based.
The nature of assay [3]: Antioxidant activity assessed as superoxide anion scavenging activity at 100 ug/mL after 5 mins by NBT reduction assay. The class given is functional.
A short description of assay [4]: Antioxidant activity assessed as protection against H2O2-induced pcDNA3.1(+) scission after 30 mins by […] staining-based gel electrophoresis. It counts as functional.
Assay [5] in a line: Antioxidant activity assessed as ferrous ion chelating activity after 30 mins by spectrophotometry. The class given is functional.
Assay [6] deals with Radical scavenging activity. The experiment in a line: Antioxidant activity assessed as DPPH radical scavenging activity after 30 mins. It counts as functional. A general note: DPPH is a stable violet radical that fades when it is reduced.
Assay [7] in a line: Antioxidant activity assessed as superoxide anion scavenging activity after 5 mins by NBT reduction assay. The class given is functional.

Activity calls are given as the source filed them. No cut-off for these calls is given here.

`COc1cc(C2Oc3cc([C@H]4Oc5cc(O)cc(O)c5C(=O)[C@@H]4O)ccc3OC2COC(=O)c2ccc(OC)c(OC)c2)ccc1O` (mixture of isomers): the result in assay [1] was Active. The values for the Activity in assay [2], in assay [3] and in assay [4] were 34.2%, 37.2% and “Dose-dependent effect”, respectively. Also, the 50% inhibitory concentration (IC50) (commonly the midpoint of a concentration-inhibition curve) in the assay on Liver worked out at 16 µM. Also, in assay [5], the 50% effective concentration (EC50) – broadly, the concentration needed to bring the measured effect to its halfway point – is 77 µM.
For the molecule `COc1ccc(C(=O)OCC2Oc3ccc([C@H]4Oc5cc(O)cc(O)c5C(=O)[C@@H]4O)cc3OC2c2ccc(O)c(OC)c2)cc1` (relative stereo), the outcome in assay [1] was inactive. In addition, the Activity in assay [2] was found to be 37.1%; in assay [3], 6.5%. In addition, in the assay on Liver, the IC50 came to 21 µM. In addition, in assay [5], the EC50 stood at 73.3 µM.
Take `COc1cc(C2Oc3cc([C@H]4Oc5cc(O)cc(O)c5C(=O)[C@@H]4O)ccc3OC2COC(=O)c2ccc3c(c2)OCO3)ccc1O` (relative stereo): the result in assay [1] was inactive. Further, the values for the Activity in assay [2] and in assay [3] were 31.7% and 7.3%, respectively. Moreover, in the assay with Liver, the IC50 amounted to 20.8 µM. Also, the EC50 in assay [5] is 108 µM.
With `COc1cc(C2Oc3cc([C@H]4Oc5cc(O)cc(O)c5C(=O)[C@@H]4O)ccc3OC2COC(=O)c2cc([N+](=O)[O-])cc([N+](=O)[O-])c2)ccc1O` (relative stereo), the result in assay [1] was inactive. The Activity turned out to be 22.1% in assay [2] and 32% in assay [3]. Moreover, in the assay on Liver, the IC50 was 14.6 µM. Moreover, the EC50 in assay [5] turned out to be 205 µM.
As for `COc1cc(C2Oc3cc([C@H]4Oc5cc(O)cc(O)c5C(=O)[C@@H]4O)ccc3OC2COC(=O)c2cccc(Cl)c2)ccc1O` (some centres not stated), the result in assay [1] was Active. The Activity in assay [2] came out at 5.6%; in assay [3], 7%. In the assay with Liver, the IC50 was 14.2 µM. In assay [5], the EC50 worked out at 106 µM.
As to `O=C([O-])CN(CCN(CC(=O)[O-])CC(=O)O)CC(=O)O.[Na+].[Na+]` [EDETATE DISODIUM ANHYDROUS], the EC50 in assay [5] is 16.2 µM.
For the molecule `COc1cc(C2Oc3cc([C@H]4Oc5cc(O)cc(O)c5C(=O)[C@@H]4O)ccc3OC2CO)ccc1O` (some centres not stated) [SILIBININ], the Activity in assay [2] turned out to be 16.6%; in assay [3] it was 38.2%. The IC50 in the assay on Liver was 22.7 µM. In assay [5], the EC50 is 196 µM.
In the case of `COc1cc(C2Oc3cc([C@H]4Oc5cc(O)cc(O)c5C(=O)[C@@H]4O)ccc3OC2COC(=O)/C=C/c2ccc(C)cc2)ccc1O` (relative stereo), the outcome in assay [1] was Active. Moreover, the Activity in assay [2] amounted to 33.3%; in assay [3] it was 7.3%. For the same molecule, the IC50 with Liver turned out to be 14.7 µM. The EC50 in assay [5] is 136 µM.
As for `COc1cc(C2Oc3cc([C@H]4Oc5cc(O)cc(O)c5C(=O)[C@@H]4O)ccc3OC2COC(=O)/C=C/c2ccc(Br)cc2)ccc1O` (relative stereo), the result in assay [1] was Active. Moreover, the figures for the Activity in assay [2], in assay [3] and in assay [4] were 19.8%, 6.5% and “Dose-dependent effect”, respectively. Also, the IC50 with Liver worked out at 16.3 µM. Moreover, in assay [5], the EC50 stood at 88.9 µM.
In the case of `COc1cc(C2Oc3cc([C@H]4Oc5cc(O)cc(O)c5C(=O)[C@@H]4O)ccc3OC2COC(=O)/C=C/c2ccc(Cl)cc2)ccc1O` (relative stereo), in assay [1], the result was Active. Also, the Activity in assay [2] is 18.4%; in assay [3] it was 9.1%; in assay [4] it was “Dose-dependent effect”. Besides, in the assay with Liver, the IC50 was 12 µM. Further, the EC50 in assay [5] came out at 87.9 µM.
As for `COc1cc(C2Oc3cc([C@H]4Oc5cc(O)cc(O)c5C(=O)[C@@H]4O)ccc3OC2COC(=O)c2cc(OC)c(OC)c(OC)c2)ccc1O` (relative stereo), the outcome in assay [1] was Active. Besides, the Activity is 52.6% in assay [2], 36.1% in assay [3] and “Dose-dependent effect” in assay [4]. For the same molecule, in the assay on Liver, the IC50 was determined as 25.7 µM. The EC50 in assay [5] is 94.8 µM; in assay [6] it was 145 µM.
Take `COc1cc(C2Oc3cc([C@H]4Oc5cc(O)cc(O)c5C(=O)[C@@H]4O)ccc3OC2COC(=O)c2cc(N)cc([N+](=O)[O-])c2)ccc1O` (some centres not stated): the result in assay [1] was inactive. Also, the EC50 in assay [7] is 129 µM; in assay [5] it was over 300 µM; in assay [6] it was 127 µM. In addition, the Activity in assay [2] was 59.9%; with Liver, “Dose-dependent effect”; in assay [3], 54.3%. For the same molecule, the IC50 in the assay with Liver is 0.2 µM.
Take `O=c1c(O)c(-c2ccc(O)c(O)c2)oc2cc(O)cc(O)c12` [QUERCETIN]: the EC50 in assay [7] worked out at 31.8 µM; in assay [5] it was 236 µM; in assay [6], 5.5 µM. The Activity in assay [2] was 96.8%; in the assay on Liver, “Dose-dependent effect”; in assay [3] it was 93.8%. Also, in the assay on Liver, the IC50 came out at 1.8 µM.
On to `COc1cc(C2Oc3cc([C@H]4Oc5cc(O)cc(O)c5C(=O)[C@@H]4O)ccc3OC2COC(=O)c2ccccc2)ccc1O` (relative stereo), for which, in assay [1], the result was Active. The Activity in assay [2] is 40.4%; in assay [4], “Dose-dependent effect”. The IC50 in the assay on Liver was found to be 12.7 µM. Moreover, the outcome in assay [3] was inactive. Also, the EC50 in assay [5] came out at 105 µM.
For `CCOC(=O)CC(=O)OCC1Oc2ccc([C@H]3Oc4cc(O)cc(O)c4C(=O)[C@@H]3O)cc2OC1c1ccc(O)c(OC)c1` (relative stereo), the result in assay [1] was Active. Moreover, the EC50 in assay [7] amounted to 113 µM; in assay [5], 101 µM. Moreover, the figures for the Activity in assay [2] and in assay [3] were 16.2% and 60.1%, respectively. Also, in the assay with Liver, the IC50 was determined as 33.4 µM.
Consider `COc1cc(C2Oc3cc([C@H]4Oc5cc(O)cc(O)c5C(=O)[C@@H]4O)ccc3OC2COC(=O)c2ccc([N+](=O)[O-])cc2)ccc1O` (relative stereo), for which the result in assay [1] and in assay [3] was inactive. Also, in assay [2], the Activity came to 38.6%. Further, in the assay with Liver, the IC50 was determined as 12.6 µM. Also, in assay [5], the EC50 was over 300 µM.
As for `COc1cc(C2Oc3cc([C@H]4Oc5cc(O)cc(O)c5C(=O)[C@@H]4O)ccc3OC2COC(=O)c2ccc(N)cc2)ccc1O` (relative stereo), the outcome in assay [1] was inactive. The Activity was 16.4% in assay [2] and 43.3% in assay [3]. Besides, the IC50 with Liver is 14.3 µM. In addition, the EC50 in assay [5] was found to be 128 µM.
